Reference: US20230271964A1, “5-AMINO-8-(4-PYRIDYL)-[1,2,4]TRIAZOLO[4,3-C]PYRIMIDIN-3-ONE COMPOUNDS FOR USE AGAINST CANCER” (ASTRAZENECA AB, priority 2020, published 2023)

Experiments:
[1] = molecular target: human adenosine A1 receptor (Homo sapiens (Human), UniProt P30542); assay: Adenosine receptor inhibition binding assay, [3H]DPCPX, A1 receptor membranes; settings: 1 nM [3H]DPCPX, 25° C., 1 h, Ki from IC50 by Cheng-Prusoff; for Ki: read-out: A1 pKi (converted)
Method: (§1) Inhibition binding assays were performed using 0.2 µg of membranes prepared from HEK293 cells infected with BacMam human adenosine A2A receptor or 1.4 µg of membranes prepared from HEK293 cells infected with BacMam human adenosine A1 receptor. Membranes were incubated in 50 mM Tris-HCl (HEK293-hA2A; pH 7.4) or 50 mM Tris-HCl, 100 mM NaCl, 10 mM MgCl2 (CHO-hA1; pH 7.4) in the presence of varying concentrations of test compound and 1 nM [^3H]ZM241385 (HEK293-hA2A) or [^3H]DPCPX (CHO-hA1) at 25° C. for 1 h. The assay was then terminated by rapid filtration onto GF/B grade Unifilter plates using a TomTec cell harvester, followed by 5 × 0.5 ml washes with ddH2O. Nonspecific binding was defined in the presence of 1 µM CGS 15943 (HEK293-hA2A) or 1 µM DPCPX (CHO-hA1). Bound radioactivity was determined by liquid scintillation counting and inhibition curves were analysed using a four-parameter logistic equation. IC50 values were converted to Ki values with the Cheng-Prusoff equation using a KD value derived from saturation binding studies.

[2] = molecular target: human adenosine A2A receptor (Homo sapiens (Human), UniProt P29274); assay: Adenosine receptor inhibition binding assay, [3H]ZM241385, HEK293 A2A receptor membranes; settings: 1 nM [3H]ZM241385, HEK293-hA2A membranes, 25° C., 1 h, Ki from IC50 by Cheng-Prusoff; for Ki: read-out: A2A pKi (converted)
human adenosine A2A receptor, sequence (P29274 whole entry): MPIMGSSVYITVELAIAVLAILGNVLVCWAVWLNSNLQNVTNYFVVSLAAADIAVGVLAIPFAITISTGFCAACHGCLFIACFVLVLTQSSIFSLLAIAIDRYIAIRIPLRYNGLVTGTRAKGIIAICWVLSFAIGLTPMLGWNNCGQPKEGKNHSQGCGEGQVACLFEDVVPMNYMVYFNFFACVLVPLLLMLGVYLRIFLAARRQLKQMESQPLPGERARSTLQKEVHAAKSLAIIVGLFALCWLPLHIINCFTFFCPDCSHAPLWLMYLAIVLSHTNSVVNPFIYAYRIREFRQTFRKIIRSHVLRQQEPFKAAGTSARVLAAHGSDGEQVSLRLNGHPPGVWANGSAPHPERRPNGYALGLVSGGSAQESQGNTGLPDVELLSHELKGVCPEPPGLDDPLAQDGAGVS
Method: as §1

human adenosine A1 receptor, sequence (P30542 whole entry): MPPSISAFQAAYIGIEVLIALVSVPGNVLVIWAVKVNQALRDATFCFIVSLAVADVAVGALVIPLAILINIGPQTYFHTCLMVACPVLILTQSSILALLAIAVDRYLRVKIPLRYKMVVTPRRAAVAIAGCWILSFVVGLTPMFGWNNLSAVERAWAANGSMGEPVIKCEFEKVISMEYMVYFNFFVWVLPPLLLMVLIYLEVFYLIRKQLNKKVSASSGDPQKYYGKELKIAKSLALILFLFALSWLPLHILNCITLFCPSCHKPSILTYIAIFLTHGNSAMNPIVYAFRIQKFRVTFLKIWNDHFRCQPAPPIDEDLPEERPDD

Structure (SMILES): Cc1cc(-c2c(-c3ccccc3)nc(N)n3c(=O)n(Cc4cnc[nH]4)nc23)cc(C)n1 [Example 1-23, 5-amino-8-(2,6-dimethyl-4-pyridyl)-2-(1H-imidazol-5-ylmethyl)-7-phenyl-[1,2,4]triazolo[4,3-c]pyrimidin-3-one]
- A1 pKi [1]: 6.6
- A2A pKi [2]: 8.3

Structure (SMILES): Cc1cc(-c2c(-c3ccccc3)nc(N)n3c(=O)n(C[C@@H]4CC(F)(F)CN4C)nc23)cc(C)n1 [Example 2-13, 5-amino-2-[[(2S)-4,4-difluoro-1-methyl-pyrrolidin-2-yl]methyl]-8-(2,6-dimethyl-4-pyridyl)-7-phenyl-[1,2,4]triazolo[4,3-c]pyrimidin-3-one]
- A1 pKi [1]: 6.3
- A2A pKi [2]: 8.2

Structure (SMILES): Cc1cc(-c2c(-c3ccccc3)nc(N)n3c(=O)n(CCc4nnn[nH]4)nc23)cc(C)n1 [Example 1-4, 5-amino-8-(2,6-dimethyl-4-pyridyl)-7-phenyl-2-[2-(1H-tetrazol-5-yl)ethyl]-[1,2,4]triazolo[4,3-c]pyrimidin-3-one]
- A1 pKi [1]: <5.4
- A2A pKi [2]: 6.4

Structure (SMILES): Cc1cc(-c2c(-c3ccccc3)nc(N)n3c(=O)n(C[C@@H]4CC(F)(F)CN4)nc23)cc(C)n1 [Example 2-11, 5-amino-2-[[(2S)-4,4-difluoropyrrolidin-2-yl]methyl]-8-(2,6-dimethyl-4-pyridyl)-7-phenyl-[1,2,4]triazolo[4,3-c]pyrimidin-3-one]
- A1 pKi [1]: 6.0
- A2A pKi [2]: 8.7

Structure (SMILES): [2H]c1c([2H])c([2H])c(-c2nc(N)n3c(=O)n(Cc4ncoc4C)nc3c2-c2cc(Cl)nc(CO)c2)c([2H])c1[2H] [Example 1-57, 5-amino-8-[2-chloro-6-(hydroxymethyl)-4-pyridyl]-2-[(5-methyloxazol-4-yl)methyl]-7-(2,3,4,5,6-pentadeuteriophenyl)-[1,2,4]triazolo[4,3-c]pyrimidin-3-one]
- Ki [1]: 126 nM
- Ki [2]: 0.1 nM

Structure (SMILES): Cc1cc(-c2c(-c3ccccc3)nc(N)n3c(=O)n(Cc4ccn(C)n4)nc23)cc(CO)n1 [Example 1-45, 5-amino-8-[2-(hydroxymethyl)-6-methyl-4-pyridyl]-2-[(1-methylpyrazol-3-yl)methyl]-7-phenyl-[1,2,4]triazolo[4,3-c]pyrimidin-3-one]
- A1 pKi [1]: 7.2
- A2A pKi [2]: 9.3

Structure (SMILES): Cc1cc(-c2c(-c3ccccc3)nc(N)n3c(=O)n(Cc4cncn4C)nc23)cc(C)n1 [Example 1-18, 5-amino-8-(2,6-dimethyl-4-pyridyl)-2-[(3-methylimidazol-4-yl)methyl]-7-phenyl-[1,2,4]triazolo[4,3-c]pyrimidin-3-one]
- A1 pKi [1]: 6.9
- A2A pKi [2]: 8.5

Structure (SMILES): Cc1cc(-c2c(-c3ccccc3)nc(N)n3c(=O)n(Cc4nnco4)nc23)cc(C)n1 [Example 1-27, 5-amino-8-(2,6-dimethyl-4-pyridyl)-2-(1,3,4-oxadiazol-2-ylmethyl)-7-phenyl-[1,2,4]triazolo[4,3-c]pyrimidin-3-one]
- A1 pKi [1]: 6.6
- A2A pKi [2]: 8.1

Structure (SMILES): Nc1nc(-c2ccc(F)cc2)c(-c2cc(Cl)nc(CO)c2)c2nn(C[C@H]3CCCO3)c(=O)n12 [Example 2-34, 5-amino-8-[2-chloro-6-(hydroxymethyl)-4-pyridyl]-7-(4-fluorophenyl)-2-[[(2R)-tetrahydrofuran-2-yl]methyl]-[1,2,4]triazolo[4,3-c]pyrimidin-3-one]
- A1 pKi [1]: 6.3
- A2A pKi [2]: 9.4

Structure (SMILES): Cc1cc(-c2c(-c3ccccc3)nc(N)n3c(=O)n(C[C@H]4CCCN4C)nc23)cc(C)n1 [Example 2-7, 5-amino-8-(2,6-dimethyl-4-pyridyl)-2-[[(2R)-1-methylpyrrolidin-2-yl]methyl]-7-phenyl-[1,2,4]triazolo[4,3-c]pyrimidin-3-one]
- A1 pKi [1]: 7.4
- A2A pKi [2]: 9.3

Structure (SMILES): COc1cc(-c2c(-c3ccccc3)nc(N)n3c(=O)n(C[C@H]4CCCO4)nc23)cc(C)n1 [Example 2-27, 5-amino-8-(2-methoxy-6-methyl-4-pyridyl)-7-phenyl-2-[[(2R)-tetrahydrofuran-2-yl]methyl]-[1,2,4]triazolo[4,3-c]pyrimidin-3one]
- A1 pKi [1]: 6.7
- A2A pKi [2]: 9.6

Structure (SMILES): Cc1cc(-c2c(-c3ccccc3)nc(N)n3c(=O)n(C(C)c4cccs4)nc23)cc(C)n1 (centres unmarked) [Example 1-8, 5-amino-8-(2,6-dimethyl-4-pyridyl)-7-phenyl-2-[1-(2-thienyl)ethyl]-[1,2,4]triazolo[4,3-c]pyrimidin-3-one]
- A1 pKi [1]: 6.7
- A2A pKi [2]: 7.8

Structure (SMILES): Cc1cc(-c2c(-c3ccccc3)nc(N)n3c(=O)n(C[C@@H]4CCCN4C)nc23)cc(C)n1 [Example 2-8, 5-amino-8-(2,6-dimethyl-4-pyridyl)-2-[[(2S)-1-methylpyrrolidin-2-yl]methyl]-7-phenyl-[1,2,4]triazolo[4,3-c]pyrimidin-3-one]
- A1 pKi [1]: 6.8
- A2A pKi [2]: 9.0

Structure (SMILES): COCCN1CCC[C@H]1Cn1nc2c(-c3cc(C)nc(C)c3)c(-c3ccccc3)nc(N)n2c1=O [Example 2-9, 5-amino-8-(2,6-dimethyl-4-pyridyl)-2-[[(2S)-1-(2-methoxyethyl)pyrrolidin-2-yl]methyl]-7-phenyl-[1,2,4]triazolo[4,3-c]pyrimidin-3-one]
- A1 pKi [1]: 6.1
- A2A pKi [2]: 8.4

Structure (SMILES): Cc1cc(-c2c(-c3ccccc3)nc(N)n3c(=O)n(C4CCN(C)C4)nc23)cc(C)n1 (centres unmarked) [Example 2-3, 5-amino-8-(2,6-dimethyl-4-pyridyl)-2-(1-methylpyrrolidin-3-yl)-7-phenyl-[1,2,4]triazolo[4,3-c]pyrimidin-3-one]
- A1 pKi [1]: 6.1
- A2A pKi [2]: 7.8

Structure (SMILES): [2H]c1c([2H])c([2H])c(-c2nc(N)n3c(=O)n(Cc4nccn4C)nc3c2-c2cc(Cl)nc(CO)c2)c([2H])c1[2H] [Example 1-56, 5-amino-8-[2-chloro-6-(hydroxymethyl)-4-pyridyl]-2-[(1-methylimidazol-2-yl)methyl]-7-(2,3,4,5,6-pentadeuteriophenyl)-[1,2,4]triazolo[4,3-c]pyrimidin-3-one]
- Ki [1]: 5.01 nM
- Ki [2]: 0.158 nM

Structure (SMILES): Cc1cc(-c2c(-c3ccccc3)nc(N)n3c(=O)n(Cc4nnc(C)o4)nc23)cc(C)n1 [Example 1-17, 5-amino-8-(2,6-dimethyl-4-pyridyl)-2-[(5-methyl-1,3,4-oxadiazol-2-yl)methyl]-7-phenyl-[1,2,4]triazolo[4,3-c]pyrimidin-3-one]
- A1 pKi [1]: 6.2
- A2A pKi [2]: 8.2

Structure (SMILES): Cc1cc(-c2c(-c3ccccc3)nc(N)n3c(=O)n(Cc4cnn(C)n4)nc23)cc(C)n1 [Example 1-30, 5-amino-8-(2,6-dimethyl-4-pyridyl)-2-[(2-methyltriazol-4-yl)methyl]-7-phenyl-[1,2,4]triazolo[4,3-c]pyrimidin-3-one]
- A1 pKi [1]: 6.6
- A2A pKi [2]: 8.9

Structure (SMILES): [2H]c1c([2H])c([2H])c(-c2nc(N)n3c(=O)n(C[C@H]4CCCO4)nc3c2-c2cc(CO)nc(OC)c2)c([2H])c1[2H] [Example 2-36, 5-amino-8-[2-(hydroxymethyl)-6-methoxy-4-pyridyl]-7-(2,3,4,5,6-pentadeuteriophenyl)-2-[[(2R)-tetrahydrofuran-2-yl]methyl]-[1,2,4]triazolo[4,3-c]pyrimidin-3-one]
- Ki [1]: 1260 nM
- Ki [2]: 0.794 nM

Structure (SMILES): Cc1cc(-c2c(-c3ccc(F)cc3)nc(N)n3c(=O)n(C[C@H]4CCCO4)nc23)cc(CO)n1 [Example 2-31, 5-amino-7-(4-fluorophenyl)-8-[2-(hydroxymethyl)-6-methyl-4-pyridyl]-2-[[(2R)-tetrahydrofuran-2-yl]methyl]-[1,2,4]triazolo[4,3-c]pyrimidin-3-one]
- A1 pKi [1]: 6.1
- A2A pKi [2]: 8.4

Structure (SMILES): Cc1cc(-c2c(-c3ccccc3)nc(N)n3c(=O)n(Cc4c(C)ncn4C)nc23)cc(CO)n1 [Example 1-44, 5-amino-2-[(3,5-dimethylimidazol-4-yl)methyl]-8-[2-(hydroxymethyl)-6-methyl-4-pyridyl]-7-phenyl-[1,2,4]triazolo[4,3-c]pyrimidin-3-one]
- A1 pKi [1]: 6.8
- A2A pKi [2]: 8.4

Structure (SMILES): Cc1cc(-c2c(-c3ccccc3)nc(N)n3c(=O)n(CC4CCCN4C(=O)OC(C)(C)C)nc23)cc(C)n1 (centres unmarked) [Example 2-4, tert-butyl 2-[[5-amino-8-(2,6-dimethyl-4-pyridyl)-3-oxo-7-phenyl-[1,2,4]triazolo[4,3-c]pyrimidin-2-yl]methyl]pyrrolidine-1-carboxylate]
- A1 pKi [1]: 6.6
- A2A pKi [2]: 7.9
